Article PMC6001238, “Iterative Chemical Engineering of Vancomycin Leads to Novel Vancomycin Analogs With a High in Vitro Therapeutic Index” (Frontiers in Microbiology, 2018)
In brackets after ≈: the same amount, converted by molar mass. Where two headings read alike, the source gives them in different places.

How the values were obtained:
E. faecalis VSE 1 = experiment: MIC, broth microdilution, vancomycin-sensitive E. faecalis (VSE 1); assay type: cell-based, Enterococcus faecalis
Outline: (§1)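 Broth microdilution per CLSI; controls = ultrapure water, non-inoculated broth. One set: + vancomycin 10 μM final alongside test analogue/control drug.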

E. faecalis VRE 6 = experiment: MIC, broth microdilution, vancomycin-resistant E. faecalis VRE 6 (VanA); assay type: cell-based, Enterococcus faecalis
Outline: as §1

E. faecalis VRE 53 = experiment: MIC, broth microdilution, vancomycin-resistant E. faecalis VRE 53 (VanA); assay type: cell-based, Enterococcus faecalis
Outline: as §1

E. faecalis VRE 29 = experiment: MIC, broth microdilution, vancomycin-resistant E. faecalis VRE 29 (VanA); assay type: cell-based, Enterococcus faecalis
Outline: as §1

E. faecalis VRE 37 = experiment: MIC, broth microdilution, vancomycin-resistant E. faecalis VRE 37 (VanA); assay type: cell-based, Enterococcus faecalis
Outline: as §1

[1] = tested on: Murine leukemia (L1210) cells; experiment: Cytostatic activity, L1210 cell proliferation; assay type: cell-based; conditions: mean ± SD of three experiments; highest concentration tested 250 µM; 2 days; read-out: Toxicity (IC50) L1210
Outline: (§2)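 Suspensions (300,000–500,000 cells/mL) combined with equal volumes of diluted compound; 37°C; L1210 2 d / CEM 3 d / HeLa 4 d; counted by Coulter counter; IC50 vs untreated wells.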

[2] = tested on: human T-lymphocyte (CEM) cells; experiment: Cytostatic activity, CEM cell proliferation; assay type: cell-based; conditions: mean ± SD of three experiments; highest concentration tested 250 µM; 3 days; read-out: Toxicity (IC50) CEM
Outline: as §2

[3] = tested on: human cervix carcinoma (HeLa) cells; experiment: Cytostatic activity, HeLa cell proliferation; assay type: cell-based; conditions: mean ± SD of three experiments; highest concentration tested 250 µM; 4 days; read-out: Toxicity (IC50) HeLa
Outline: as §2

[4] = tested on: L1210, CEM and HeLa cell lines; experiment: Cytostatic activity, average or summary over L1210, CEM and HeLa; assay type: cell-based
Outline: as §2

[5] = tested on: S. aureus VSSA (ATCC 6538); experiment: MIC, broth microdilution, vancomycin-sensitive S. aureus (VSSA/MSSA, ATCC 6538); assay type: cell-based, Staphylococcus aureus
Outline: as §1

S. aureus VISA/HIP5827 = experiment: MIC, broth microdilution, vancomycin-intermediate S. aureus VISA HIP5827; assay type: cell-based, Staphylococcus aureus; conditions: VISA/HIP5827; ratio of MIC of vancomycin and MIC of analogue
Outline: as §1

S. aureus VRSA = experiment: MIC, broth microdilution, vancomycin-resistant S. aureus (VRSA); assay type: cell-based, Staphylococcus aureus
Outline: as §1

MRSA KS2 = experiment: MIC, broth microdilution, MRSA KS2; assay type: cell-based, Staphylococcus aureus
Outline: as §1

MRSA KS6 = experiment: MIC, broth microdilution, MRSA KS6; assay type: cell-based, Staphylococcus aureus
Outline: as §1

MRSA KS89 = experiment: MIC, broth microdilution, MRSA KS89; assay type: cell-based, Staphylococcus aureus
Outline: as §1

MRSA KS1 = experiment: MIC, broth microdilution, MRSA KS1; assay type: cell-based, Staphylococcus aureus
Outline: as §1

33 clinical VRE isolates = experiment: MIC against a set of 33 clinical VRE isolates (range, MIC50, TI); assay type: cell-based, Enterococcus faecalis
Description: (§3) The minimum inhibitory concentration (MIC) was determined using the broth microdilution method according to the antimicrobial susceptibility testing standards of the clinical and laboratory standards institute ([Clinical and Laboratory Standards Institute [CLSI], 2012]). Ultrapure water and non-inoculated broth were used as controls. In one case, a final concentration of 10 μM vancomycin was included with the vancomycin analog or control antibiotic.

[6] = tested on: 24 clinical MRSA isolates; experiment: MIC against a set of 24 clinical MRSA isolates (range, MIC50, TI); assay type: cell-based, Staphylococcus aureus
Description: as §3

[7] = tested on: Clostridium difficile ATJ ribotype 014/20; experiment: MIC, plate drop assay, C. difficile ATJ ribotype 014/20; assay type: cell-based; conditions: C. difficile ATJ ribotype 014/20
Outline: (§4)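 Twofold dilution series of test compounds were spotted onto C. difficile lawns in 0.4% BHI agar containing added calcium and magnesium salts. After overnight anaerobic incubation at 37°C, growth inhibition was scored by spot clearing; triplicate runs, ultrapure water negative control.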

[8] = tested on: Clostridium difficile AIU ribotype 027; experiment: MIC, plate drop assay, C. difficile AIU ribotype 027; assay type: cell-based; conditions: C. difficile AIU ribotype 027
Outline: as §4

VE 148 (VanB) = experiment: MIC, VanB-type VRE strain VE 148; assay type: cell-based, Enterococcus; conditions: VE 148, VanB; read-out: MIC
Description: as §3

VE 149 (VanB) = experiment: MIC, VanB-type VRE strain VE 149; assay type: cell-based, Enterococcus; conditions: VE 149, VanB; read-out: MIC
Description: as §3

VE 150 (VanB) = experiment: MIC, VanB-type VRE strain VE 150; assay type: cell-based, Enterococcus; conditions: VE 150, VanB; read-out: MIC
Description: as §3

VE 152 (VanB) = experiment: MIC, VanB-type VRE strain VE 152; assay type: cell-based, Enterococcus; conditions: VE 152, VanB; read-out: MIC
Description: as §3

VE 157 (VanB) = experiment: MIC, VanB-type VRE strain VE 157; assay type: cell-based, Enterococcus; conditions: VE 157, VanB; read-out: MIC
Description: as §3

VE 82 (VanC1) = experiment: MIC, VanC1-type VRE strain VE 82; assay type: cell-based, Enterococcus gallinarum; conditions: VE 82, VanC1; read-out: MIC
Description: as §3

MRSA = experiment: Minimum bactericidal concentration against MRSA; assay type: cell-based, Staphylococcus aureus
Description: Plates were incubated overnight at 37°C and colony growth was inspected.

CNC(CC(C)C)C(=O)NC1C(=O)NC(CC(N)=O)C(=O)NC2C(=O)NC3C(=O)NC(C(=O)NC(C(=O)NCCCNC(=O)c4cc5ccccc5[nH]4)c4cc(O)cc(O)c4-c4cc3ccc4O)C(O)c3ccc(c(Cl)c3)Oc3cc2cc(c3OC2OC(CO)C(O)C(O)C2OC2CC(C)(N)C(O)C(C)O2)Oc2ccc(cc2Cl)C1O (stereo not shown) [Vanc-24]
MIC (E. faecalis VSE 1; Enterococcus faecalis VSE 1 (vancomycin-sensitive), read-out: MIC): 0.20 µM (≈ 0.33 µg/mL)
MIC-fold improvement vs. vancomycin (E. faecalis VSE 1; VSE 1, ratio of MIC of vancomycin and MIC of analogue): 8
MIC (E. faecalis VRE 6; Enterococcus faecalis VRE 6 (vancomycin-resistant), read-out: MIC): 0.78 µM (≈ 1.29 µg/mL)
MIC-fold improvement vs. vancomycin (E. faecalis VRE 6; VRE 6, ratio of MIC of vancomycin and MIC of analogue): 256
MIC (E. faecalis VRE 53; Enterococcus faecalis VRE 53 (vancomycin-resistant), read-out: MIC): 25 µM (≈ 41.2 µg/mL)
MIC-fold improvement vs. vancomycin (E. faecalis VRE 53; VRE 53, ratio of MIC of vancomycin and MIC of analogue): 16
MIC (E. faecalis VRE 29; Enterococcus faecalis VRE 29 (vancomycin-resistant), read-out: MIC): 12.5 µM (≈ 20.6 µg/mL)
MIC-fold improvement vs. vancomycin (E. faecalis VRE 29; VRE 29, ratio of MIC of vancomycin and MIC of analogue): 32
MIC (E. faecalis VRE 37; Enterococcus faecalis VRE 37 (vancomycin-resistant), read-out: MIC): 6.25 µM (≈ 10.3 µg/mL)
MIC-fold improvement vs. vancomycin (E. faecalis VRE 37; VRE 37, ratio of MIC of vancomycin and MIC of analogue): 64
IC50 [1]: 164 ± 20 µM
IC50 [2]: 248 ± 3 µM
IC50 [3]: 83 ± 9 µM
IC50 ([4]; average IC50 used for TI in Table S5, >250 entered as 250, read-out: IC50): 165 µM
IC50 ([4]; average of L1210, CEM and HeLa, read-out: Toxicity (IC50) Average): 165 µM
MIC ([5]; Staphylococcus aureus VSSA, read-out: MIC): 0.20 µM (≈ 0.33 µg/mL)
MIC-fold improvement vs. vancomycin ([5]; VSSA, ratio of MIC of vancomycin and MIC of analogue): 4
MIC-fold improvement vs. vancomycin (S. aureus VISA/HIP5827): 32
MIC (S. aureus VRSA; Staphylococcus aureus VRSA, read-out: MIC): 1.56 µM (≈ 2.57 µg/mL)
MIC-fold improvement vs. vancomycin (S. aureus VRSA; VRSA, ratio of MIC of vancomycin and MIC of analogue): 64
MIC-fold improvement vs. vancomycin (MRSA KS2; MRSA KS2, ratio of MIC of vancomycin and MIC of analogue): 4
MIC (MRSA KS2; Staphylococcus aureus MRSA KS2, read-out: MIC): 0.20 µM (≈ 0.33 µg/mL)
MIC-fold improvement vs. vancomycin (MRSA KS6; MRSA KS6, ratio of MIC of vancomycin and MIC of analogue): 2
MIC (MRSA KS6; Staphylococcus aureus MRSA KS6, read-out: MIC): 0.39 µM (≈ 0.643 µg/mL)
MIC-fold improvement vs. vancomycin (MRSA KS89; MRSA KS8, ratio of MIC of vancomycin and MIC of analogue): 2
MIC (MRSA KS89; Staphylococcus aureus MRSA KS8, read-out: MIC): 0.39 µM (≈ 0.643 µg/mL)
MIC-fold improvement vs. vancomycin (MRSA KS1; MRSA KS1, ratio of MIC of vancomycin and MIC of analogue): 2
MIC (MRSA KS1; Staphylococcus aureus MRSA KS1, read-out: MIC): 0.39 µM (≈ 0.643 µg/mL)
MIC Range (33 clinical VRE isolates; 33 clinical VRE isolates): 3.13 to 50 µM
TI (IC50/MIC50) (33 clinical VRE isolates; in vitro therapeutic index, VRE): 26
MIC50 (33 clinical VRE isolates; median MIC, 33 clinical VRE isolates, read-out: MIC50): 6.25 µM (≈ 10.3 µg/mL)
MIC Range ([6]; 24 clinical MRSA isolates): 0.10 to 0.78 µM
TI (IC50/MIC50) ([6]; in vitro therapeutic index, MRSA): 825
MIC50 ([6]; median MIC, 24 clinical MRSA isolates, read-out: MIC50): 0.20 µM (≈ 0.33 µg/mL)
MIC-fold improvement vs. vancomycin [7]: 11
MIC-fold improvement vs. vancomycin [8]: 14
MIC (VE 148 (VanB)): 3.13 µM (≈ 5.16 µg/mL)
MIC (VE 149 (VanB)): 1.56 µM (≈ 2.57 µg/mL)
MIC (VE 150 (VanB)): 1.56 µM (≈ 2.57 µg/mL)
MIC (VE 152 (VanB)): 1.56 µM (≈ 2.57 µg/mL)
MIC (VE 157 (VanB)): 1.56 µM (≈ 2.57 µg/mL)
MIC (VE 82 (VanC1)): 0.39 µM (≈ 0.643 µg/mL)
MBC relative to MIC (MRSA): MBC equaling their MIC values
